Patent US20250171462A1 (NICO Therapeutics, Inc., priority 2022, published 2025)
Read-outs that look alike come from different tables or passages of the source.

Biological target: T1, full-length SARM1 (FL-SARM1) (Homo sapiens, UniProt Q6SZW1)
T1 sequence (Q6SZW1 28-724): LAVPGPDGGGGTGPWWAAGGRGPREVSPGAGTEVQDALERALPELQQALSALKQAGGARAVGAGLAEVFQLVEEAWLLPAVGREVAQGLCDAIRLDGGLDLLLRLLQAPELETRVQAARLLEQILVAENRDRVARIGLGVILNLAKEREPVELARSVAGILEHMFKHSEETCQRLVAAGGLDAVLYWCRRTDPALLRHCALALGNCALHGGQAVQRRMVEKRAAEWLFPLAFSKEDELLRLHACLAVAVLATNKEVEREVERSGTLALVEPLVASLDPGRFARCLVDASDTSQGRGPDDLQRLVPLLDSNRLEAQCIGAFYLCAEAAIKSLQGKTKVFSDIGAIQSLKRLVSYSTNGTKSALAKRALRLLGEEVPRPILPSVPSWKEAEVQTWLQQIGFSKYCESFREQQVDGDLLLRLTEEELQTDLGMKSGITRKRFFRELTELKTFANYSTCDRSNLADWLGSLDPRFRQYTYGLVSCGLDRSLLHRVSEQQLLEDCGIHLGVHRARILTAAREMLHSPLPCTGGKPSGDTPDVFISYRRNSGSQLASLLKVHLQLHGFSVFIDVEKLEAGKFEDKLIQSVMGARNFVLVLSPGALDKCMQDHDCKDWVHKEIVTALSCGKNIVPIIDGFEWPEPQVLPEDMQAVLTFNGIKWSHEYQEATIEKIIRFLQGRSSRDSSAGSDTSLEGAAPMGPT
Experiment: FL-SARM1 cellular lysate assay (NAD/NADH-Glo detection of remaining NAD+, NMN-activated)

[1] = Activity (IC50 class), 11 point curve
[2] = Activity (μM) (IC50), 11 point curve
[3] = read-out: Activity (IC50 class), 11 point curve

Compound | IC50 [1] [µM] | IC50 [2] [µM] | IC50 [3] [µM]
Cc1ccc(NC(=O)N2CCC3CC3CC2)cc1-c1ncc(F)cn1 (centres unmarked) [Example 300, N-(3-(5-fluoropyrimidin-2-yl)-4-methylphenyl)-4-azabicyclo[5.1.0]octane-4-carboxamide] | 1 to 10 | 1.2 | –
O=C(Nc1ccc(C(F)(F)F)c(-c2ncc(F)cn2)c1)[C@H]1C[C@H]2C[C@H]2N1c1ccccn1 [Example 301, (1R,3R,5R)-N-(3-(5-fluoropyrimidin-2-yl)-4-(trifluoromethyl)phenyl)-2-(pyridin-2-yl)-2-azabicyclo[3.1.0]hexane-3-carboxamide] | 1 to 10 | 2.1 | –
O=C(Nc1ccc(C(F)(F)F)c(-c2ncc(F)cn2)c1)C1C2CCC1CC2 (centres unmarked) [Example 303, N-(3-(5-fluoropyrimidin-2-yl)-4-(trifluoromethyl)phenyl) bicyclo[2.2.1]heptane-e-7-carboxamide] | – | 0.5 | 0.0001 to 1
O=C(Nc1ccc(C(F)(F)F)c(-c2ncc(F)cn2)c1)N1CCCC2CC2C1 (centres unmarked) [Example 304, N-(3-(5-fluoropyrimidin-2-yl)-4-(trifluoromethyl)phenyl)-3-azabicyclo[5.1.0]octane-3-carboxamide] | 1 to 10 | 2.4 | –
CNC(=O)CC12CC(C)CC(C1)N2C(=O)Nc1ccc(C)c(-c2ncc(F)cn2)c1 (centres unmarked) [Example 305, N-(3-(5-fluoropyrimidin-2-yl)-4-methylphenyl)-3-methyl-1-(2-(methylamino)-2-oxoethyl)-6-azabicyclo[3.1.1]heptane-6-carboxamide] | – | 0.01 | 0.0001 to 1
CO[C@@H]1CCCN(C(=O)Nc2ccc(C(F)(F)F)c(-c3ncc(F)cn3)c2)CC1 [Example 306, (R)-N-(3-(5-fluoropyrimidin-2-yl)-4-(trifluoromethyl)phenyl)-4-methoxyazepane-1-carboxamide] | 1 to 10 | 9.6 | –
CO[C@H]1CCCN(C(=O)Nc2ccc(C(F)(F)F)c(-c3ncc(F)cn3)c2)CC1 [Example 307, (S)-N-(3-(5-fluoropyrimidin-2-yl)-4-(trifluoromethyl)phenyl)-4-methoxyazepane-1-carboxamide] | > 10 | 13 | –
CO[C@@H]1CCCCN(C(=O)Nc2ccc(C(F)(F)F)c(-c3ncc(F)cn3)c2)C1 [Example 308, (R)-N-(3-(5-fluoropyrimidin-2-yl)-4-(trifluoromethyl)phenyl)-3-methoxyazepane-1-carboxamide] | > 10 | 32 | –
O=C(Nc1ccc(C(F)(F)F)c(-c2ncc(F)cn2)c1)N1C2CC3CC(C2)CC1C3 [Example 310, N-(3-(5-fluoropyrimidin-2-yl)-4-(trifluoromethyl)phenyl)-2-azaadamantane-2-carboxamide] | – | 0.7 | 0.0001 to 1
O=C(Nc1ccc(C(F)(F)F)c(-c2ncc(F)cn2)c1)N1C2CCCCC1C2 [Example 311, N-(3-(5-fluoropyrimidin-2-yl)-4-(trifluoromethyl)phenyl)-7-azabicyclo[4.1.1]octane-7-carboxamide] | – | 0.1 | 0.0001 to 1
O=C(Nc1ccc(C(F)(F)F)c(-c2ncc(F)cn2)c1)N1CCCCCC1 [Example 313, N-(3-(5-fluoropyrimidin-2-yl)-4-(trifluoromethyl)phenyl) azepane-1-carboxamide] | – | 0.8 | 0.0001 to 1
C[C@@H]1CC2C[C@H](C1)N2C(=O)Nc1ccc(Br)c(-c2nccnn2)c1 [Example 315] | – | 0.08 | 0.0001 to 1
Cc1ccc(NC(=O)[C@H]2CC[C@@H](C)N2c2ccc(F)cn2)cc1-c1ncc(F)cn1 [Example 316] | 1 to 10 | 1.7 | –
Cc1ccc(NC(=O)[C@H]2C[C@@H](c3ccccc3)CN2c2ncccn2)cc1-c1ncc(F)cn1 [Example 319] | 1 to 10 | 6.7 | –
Cc1cnc(-c2cc(NC(=O)N3[C@@H]4C[C@@H](C)C[C@H]3C4)c(F)cc2Cl)nn1 [Example 320] | – | 0.6 | 0.0001 to 1
CC(=O)N1C[C@H](c2ccccc2)C[C@@H]1C(=O)Nc1ccc(C)c(-c2ncc(F)cn2)c1 [Example 321] | > 10 | 24 | –
Cc1ccc(NC(=O)[C@H]2[C@@H]3CC[C@@H](C3)N2c2ncccn2)cc1-c1ncc(F)cn1 [Example 322] | > 10 | 13 | –
C[C@@H]1C[C@@H]2C[C@H](C1)N2C(=O)Nc1cc(-c2nccnn2)c(Cl)cc1F [Example 323] | – | 0.2 | 0.0001 to 1
CO[C@@H]1C[C@H](C(=O)Nc2ccc(C)c(-c3ncc(F)cn3)c2)N(c2ncccn2)C1 [Example 324] | > 10 | 17 | –
Cc1ccc(NC(=O)[C@@H]2C[C@@H]3C[C@@H]3C2)cc1-c1ncc(F)cn1 [Example 325] | 1 to 10 | 1.2 | –
Cc1ccc(NC(=O)N2C3CCCC2C3)cc1-c1ncc(F)c(C)n1 [Example 326] | 1 to 10 | 1.4 | –
Cc1ccc(NC(=O)OCC2CC2)cc1-c1ncccn1 [Example 328] | > 10 | 31 | –
